# Measured values: patent US12686668B2, “Leukotriene synthesis inhibitors” (Naegis Pharmaceuticals Inc., priority 2019, dated 2026)
# How the values were obtained:
# [1] = test system: LTC4 production in MC/9 cells; assay: MC/9 HPLC assay, inhibition of LTC4 production; assay type: cell-based; conditions: Mus musculus; for inhibition at 3 µM: MC9, 3 μM, A23187 stimulated; for inhibition at 1 µM: MC9, Table 2 column 3, no concentration in head (1 μM according to b732), read-out: % Inhibition LTC4
# Method: (§1) Cultured MC/9 cells (3×10^6 cells) in 1 mL HBSS were pre-incubated with a series of concentrations of compound solubilized in DMSO for 30 minutes. Production of leukotrienes were stimulated with the addition of 1 μM calcium ionophore (A23187), diluted from a 4 mM DMSO stock in HBSS, and incubated at room temperature for 20 minutes. The reaction was stopped with the addition of 500 μL of methanol containing 20 ng/mL prostaglandin B2 as an internal standard. Samples were collected and stored at −20° C. at least 2 hr or overnight before centrifuged at 13,000 rpm for 15 minutes and loaded onto C18 SEP-PAK columns (Canadian Lifesciences IS12000) for solid phase extraction. The leukotrienes were analyzed by HPLC using an ACE C18 column (4.5 mm×150 mm, 5 m) eluted with acetonitrile/methanol/water mixture with H3PO4, pH 3.5 (37:26:37) with a flow rate of 1.8 mL/min. The amount of LTB4 (Cayman Chemical, 20110) and LTC4 (Cayman Chemical, 20210) were calculated based on reference standards and the level of inhibition of LTB4 production induced by the test compounds was calculated relative to control samples. The results are provided in Table 2, where Compound No. refers to the compounds identified in Table 1.
# [2] = molecular target: T1, recombinant human leukotriene A4 hydrolase enzyme (Homo sapiens, UniProt P09960); assay: Amino-peptidase assay, alanine-4-nitroanalide; assay type: biochemical; conditions: negative values = augmented peptidase activity, read-out: % Inhibition aminopeptidase-Alanine-4-nitroanalide activity of LTA4H (3 μM)
# T1 construct: purchased Cayman Chemical 10007817
# T1 sequence (P09960 1-611): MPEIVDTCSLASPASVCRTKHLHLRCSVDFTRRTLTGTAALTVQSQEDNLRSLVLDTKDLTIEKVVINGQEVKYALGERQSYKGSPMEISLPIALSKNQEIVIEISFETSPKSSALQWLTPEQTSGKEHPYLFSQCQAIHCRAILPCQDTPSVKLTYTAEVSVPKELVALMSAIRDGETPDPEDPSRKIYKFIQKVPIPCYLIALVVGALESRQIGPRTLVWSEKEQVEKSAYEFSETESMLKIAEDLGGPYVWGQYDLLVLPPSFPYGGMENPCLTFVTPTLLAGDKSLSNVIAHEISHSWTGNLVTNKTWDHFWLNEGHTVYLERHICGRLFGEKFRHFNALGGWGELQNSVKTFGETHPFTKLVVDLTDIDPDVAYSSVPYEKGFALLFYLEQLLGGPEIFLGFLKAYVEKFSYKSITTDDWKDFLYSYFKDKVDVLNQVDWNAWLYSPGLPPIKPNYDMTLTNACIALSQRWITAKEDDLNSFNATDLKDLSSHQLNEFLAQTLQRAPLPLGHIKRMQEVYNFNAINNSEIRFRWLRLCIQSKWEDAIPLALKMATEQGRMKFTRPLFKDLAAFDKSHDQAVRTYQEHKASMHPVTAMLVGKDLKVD
# Method: A series of compound concentrations were pre-incubated in the absence of light with 0.5 μg of recombinant human leukotriene A4 hydrolase enzyme (Cayman Chemical 10007817) in 50 μL assay buffer (50 mM Tris-HCl, 100 mM KCl). The reaction was stimulated by adding 50 μL 6 mM alanine-4-nitroanilide (Sigma Aldrich A9325) in assay buffer. The amount of amino-peptidase activity was measured by determining the change in absorbance at 405 nm due to 4-nitroanaline production and comparing the rate of change to a reference standard (Sigma Aldrich 185310). Amino-peptidase activity was compared to control samples and the level of inhibition was calculated. Compounds that augment peptidase activity are represented by negative values.
# [3] = molecular target: T1, recombinant human leukotriene A4 hydrolase enzyme; assay: Amino-peptidase assay, PGP; assay type: biochemical; conditions: concentration not given
# Method: A series of compound concentrations were pre-incubated with 50 ng of recombinant human leukotriene A4 hydrolase enzyme (Cayman Chemical, 10007817) in 50 L assay buffer (50 mM Tris-HCl, 100 mM KCl). The reaction was stimulated by adding 50 L 1 mM proline-glycine-proline (Bachem, H-7284) and incubated for 30 minutes at 37° C. The reaction was stopped with the addition of 150 μL of glacial acetic acid. The amount of free proline released from the peptide was detected through a reaction with ninhydrin. 150 μL of 25 mg/mL ninhydrin (BDH, B10132) in 60:40 acetic acid/water was added to each sample, and boiled for 30 minutes at 100° C. and once samples had cooled to room temperature, 350 μL of toluene was added to extract the ninhydrin reaction product. The amount of free proline was determined by comparing the absorbance at 520 nm to the L-proline (Sigma Aldrich, 81709) reference standard. Inhibition of free proline production was calculated based on control samples.
# [4] = test system: LTB4 production in MC/9 cells; assay: MC/9 HPLC assay, inhibition of LTB4 production; assay type: cell-based; conditions: Mus musculus, MC9, Table 2 column 4, no concentration in head (1 μM according to b732), read-out: % Inhibition LTB4
# Method: as §1
# [5] = test system: LTB4 production in porcine or human whole blood; assay: Whole blood HPLC assay, inhibition of LTB4 production; assay type: cell-based; conditions: 5 point curve, porcine or human whole blood (not specified)
# Method: Porcine or human whole blood (1 mL) was pre-incubated with a series of concentrations of compound solubilized in DMSO for 30 minutes. Production of leukotrienes were stimulated with the addition of 20 μM calcium ionophore (A23187), diluted from a 4 mM DMSO stock in HBSS, and incubated at room temperature for 20 minutes. In porcine blood 20 μM arachidonic acid was added in addition to the calcium ionophore. The blood was centrifuged at 2,000 rpm for 15 minutes, and the plasma fraction removed for further processing. Plasma samples were diluted with 500 μL acidified water (HCl pH 3.0) and loaded onto C18 SEP-PAK columns (Canadian Lifesciences IS12000) for solid phase extraction. The leukotrienes were analyzed by HPLC using an ACE C18 column (4.5 mm×150 mm, 5 m) eluted with acetonitrile/methanol/water mixture with H3PO4, pH 3.5 (37:26:37) with a flow rate of 1.8 mL/min. The amount of LTB4 (Cayman Chemical, 20110) was calculated based on reference standards and the level of inhibition of LTB4 production induced by the test compounds was calculated relative to control samples. The results provided in Table 3 are IC50 values calculated based on a 5 point curve, where Compound No. refers to the compounds identified in Table 1.
Compound,inhibition at 3 µM [2],% Inhibition aminopeptidase-PGP activity of LTA4H [3],IC50 [5],inhibition at 3 µM [1],inhibition at 1 µM [1],inhibition at 1 µM [4]
"OC(c1ccc(Oc2nc3c(F)cc(F)cc3s2)cc1)C(F)(F)F (stereo not shown) [Compound 179, 1-{4-[(4,6-difluoro-1,3-benzothiazol-2-yl)oxy]phenyl}-2,2,2-trifluoroethanol]",> 75%,>75%,–,10 to 30%,–,–
"CCC(CCc1ccc(Oc2nc3ccccc3s2)c(OC)c1)N1CCN(C)CC1 (stereo not shown) [Compound 188, 1-[4-(1,3-benzothiazol-2-yloxy)-3-methoxyphenyl]-3-(4-methylpiperazinyl-1yl)pentane]",< 25%,25-50%,–,10 to 30%,–,–
"CCC(C)(O)CCc1ccc(Oc2nc3ccccc3o2)cc1 (stereo not shown) [Compound 146, 1-[4-(1,3-benzoxazol-2-yloxy)phenyl]-3-methylpentan-3-ol]",< 25%,–,1 to 10 µM,–,10 to 30%,> 90%
"CC(CCc1ccc(Oc2nc3ccccc3s2)cc1)N1CCCC1C(=O)O (stereo not shown) [Compound 157, 1-{4-[4-(1,3-benzothiazol-2-yloxy)phenyl]butan-2-yl}pyrrolidine-2-carboxylic acid]",–,–,1 to 10 µM,–,< 10%,70 to 90%
"COc1cc(CCC(O)c2ccccc2)ccc1Oc1nc2ccccc2s1 (stereo not shown) [Compound 132, 3-[4-(1,3-benzothiazol-2-yloxy)-3-methoxyphenyl]-1-phenylpropan-1-ol]",–,–,> 10 µM,–,70 to 90%,> 90%
"OC(c1ccc(Oc2nc3ccccc3s2)c(Cl)c1)C(F)(F)F (stereo not shown) [Compound 167, 1-[4-(1,3-benzothiazol-2-yloxy)-3-chlorophenyl]-2,2,2-trifluoroethanol]",> 75%,–,> 10 µM,10 to 30%,10 to 30%,10 to 30%
"OC(c1ccc(Oc2nc3ccccc3s2)cc1)C(F)(F)F (stereo not shown) [Compound 166, 1-[4-(1,3-benzothiazol-2-yloxy)phenyl]-2,2,2-trifluoroethanol]",< 25%,–,0.1 to 1 µM,30 to 50%,–,–
"c1ccc2sc(Oc3ccc(CN4CCCC4)cc3)nc2c1 [Compound 164, 2-[4-(pyrrolidin-1-ylmethyl)phenoxy]-1,3-benzothiazole]",> 75%,–,0.1 to 1 µM,< 10%,–,–
"CC(O)CCc1ccc(Oc2nc3ccccc3s2)cc1 (stereo not shown) [Compound 141, 4-[4-(1,3-benzothiazol-2-yloxy)phenyl]butan-2-ol]",–,–,1 to 10 µM,–,10 to 30%,> 90%
"CCC(O)(CCc1ccc(OCc2ccc3ccccc3n2)cc1)C(F)(F)F (stereo not shown) [Compound 185, 1-[4-(quinolin-2-ylmethoxy)-phenyl]-3-(trifluoromethyl)-pentan-3-ol]",–,–,0.1 to 1 µM,70 to 90%,–,–
"CC(CCc1ccc(Oc2nc3ccccc3s2)cc1)N1CCCC1 (stereo not shown) [Compound 156, 2-{4-[3-(pyrrolidin-1-yl)butyl]phenoxy}-1,3-benzothiazole]",–,–,0.1 to 1 µM,–,< 10%,> 90%

# Now from value to molecule, other results behind:
inhibition at 3 µM [2],% Inhibition aminopeptidase-PGP activity of LTA4H [3],IC50 [5],Compound,inhibition at 3 µM [1],inhibition at 1 µM [1],inhibition at 1 µM [4]
–,–,> 10 µM,"CCC(O)(CCc1ccc(Oc2nc3ccccc3s2)c(OCC2CC2)c1)C(F)(F)F (stereo not shown) [Compound 117, 1-[4-(1,3-benzothiazol-2-yloxy)-3-(cyclopropyl-methoxy)-phenyl]-3-(trifluoromethyl)-pentan-3-ol]",–,30 to 50%,70 to 90%
–,–,> 10 µM,"CCC(O)(CCc1ccc(Oc2nc3ccc(S(C)(=O)=O)cc3s2)c(OC)c1)C(F)(F)F (stereo not shown) [Compound 106, 1-{3-methoxy-4-[(6-methylsulfonyl-1,3-benzothiazol-2-yl)oxy]phenyl}-3-(trifluoromethyl)pentan-3-ol]",30 to 50%,10 to 30%,10 to 30%
–,<25%,–,"CCC(=O)CCc1ccc(Oc2nc3ccccc3s2)c(OC(C)C)c1 [Compound 112, 1-[4-(1,3-benzothiazol-2-yloxy)-3-(iso-propyloxy)-phenyl]pentan-3-one]",–,–,–
–,–,> 10 µM,"CCC(O)(CCc1ccc(Oc2nc3ccccc3s2)c(OC(C)C)c1)C(F)(F)F (stereo not shown) [Compound 115, 1-[4-(1,3-benzothiazol-2-yloxy)-3-(iso-propyloxy)phenyl]-3-(trifluoromethyl)pentan-3-ol]",< 10%,< 10%,< 10%
–,–,> 10 µM,"COc1cc(C(O)C(F)(F)F)ccc1Oc1nc2ccccc2s1 (stereo not shown) [Compound 137, 1-[4-(1,3-benzothiazol-2-yloxy)-3-methoxyphenyl]-2,2,2-trifluoroethanol]",50 to 70%,–,10 to 30%
–,–,> 10 µM,"CCC(O)(CCc1ccc(Oc2nc3c(F)cc(F)cc3s2)c(OC)c1)C(F)(F)F (stereo not shown) [Compound 107, 1-{4-[(4,6-difluoro-1,3-benzothiazol-2-yl)oxy]-3-methoxyphenyl}-3-(trifluoromethyl)pentan-3-ol]",> 90%,70 to 90%,> 90%
–,–,> 10 µM,"CCC(O)(CCc1ccc(Oc2nc3ccccc3s2)c(C(F)(F)F)c1)C(F)(F)F (stereo not shown) [Compound 155, 1-[4-(1,3-benzothiazol-2-yloxy)-3-(trifluoromethyl)-phenyl]-3-(trifluoromethyl)-pentan-3-ol]",–,< 10%,10 to 30%
–,–,1 to 10 µM,"CCNC(c1ccc(Oc2nc3ccccc3s2)c(OC)c1)C(F)(F)F (stereo not shown) [Compound 138, 1-[4-(1,3-benzothiazol-2-yloxy)-3-methoxyphenyl]-N-ethyl-2,2,2-trifluoroethanamine]",70 to 90%,30 to 50%,10 to 30%
